The text below walks through data of patent US10174037B2, “Dihydropyrazolopyrimidinone compounds as PDE2 inhibitors” (Merck Sharp & Dohme Corp., priority 2015, dated 2019).

In one assay the target is Rhesus PDE2A3 (Macaca mulatta, UniProt B3VTJ2). In words: PDE2 fluorescence polarization (IMAP FP) assay, rhesus PDE2A3. The assay is classed as biochemical, rhesus macaque. The procedure: A Labcyte Echo 555 (Labcyte, Sunnyvale, Calif.) is used to dispense 200 nL from each well of the titration plate to the 384 well assay plate. Ten microliters of a solution of enzyme (1/2000 final dilution from aliquots; sufficient to produce 20% substrate conversion) was added to the assay plate. Next 10 uL of a separate solution of the substrate FAM-labeled cAMP (50 nM final concentration product # R7506 from Molecular Devices) and the activator cGMP (1 uM final concentration), prepared in the assay buffer (10 mM Tris HCl, pH 7.2, 10 mM MgCl2, 0.05% NaN3 0.01% Tween-20, and 1 mM DTT) was added to the assay plate and shaken to mix. The reaction is allowed to proceed at room temperature for 60 minutes. A binding solution is then made from the kit components, comprised of 80% Solution A, 20% Solution B and binding reagent at a volume of 1/600 the total binding solution. The enzymatic reaction is stopped by addition of 60 μL of the binding solution to each well of the assay plates and the plates are sealed and shaken for 30 seconds. The plate was incubated at room temperature for at least one hour prior to determining the fluorescence polarization (FP). The parallel and perpendicular fluorescence of each well of the plate was measured using a Tecan Genios Pro plate reader (Tecan, Switzerland) or Perkin Elmer EnVision™ plate reader (Waltham, Mass.). Fluorescence polarization (mP) was calculated from the parallel (S) and perpendicular (P) fluorescence of each sample well and the analogous values for the median control well, containing only substrate (So and Po), using the following equation: Polarization (mP)=1000*(S/So−P/Po)/(S/So+P/Po).
Dose-inhibition profiles for each compound were characterized by fitting the mP data to a four-parameter equation given below.
An apparent (KM) for FAM-labeled cAMP of ˜10 uM was used.

In another assay the target is human PDE2A1 (Homo sapiens (Human), UniProt O00408). Briefly: PDE selectivity IMAP FP assay, human PDE2A1. Particulars: Human PDE2; Lab B; read-out: Human PDE2 Ki (nM) Lab B. The assay is classed as biochemical. The method, boiled down: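 IMAP fluorescence polarization assay; PDE2 substrate 50 nM FAM-cAMP containing 1000 nM cGMP, enzyme diluted for 20% substrate conversion, in 10 mM Tris HCl pH 7.2, 10 mM MgCl2, 1 mM DTT. Reaction 60 min at room temperature, stopped with IMAP binding solution; polarization read after 1 h. Ki reported.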

[1] abbreviates: Lab B, read-out: Rhesus PDE2 Ki (nM) Lab B.
Where [2] appears, read: Lab A, read-out: Rhesus PDE2 Ki (nM) Lab A.

The structures appear in SMILES notation. Where two headings read alike, the source gives them in different places. Bounds are passed on as bounds.

Rhesus PDE2A3, sequence (B3VTJ2 1-941): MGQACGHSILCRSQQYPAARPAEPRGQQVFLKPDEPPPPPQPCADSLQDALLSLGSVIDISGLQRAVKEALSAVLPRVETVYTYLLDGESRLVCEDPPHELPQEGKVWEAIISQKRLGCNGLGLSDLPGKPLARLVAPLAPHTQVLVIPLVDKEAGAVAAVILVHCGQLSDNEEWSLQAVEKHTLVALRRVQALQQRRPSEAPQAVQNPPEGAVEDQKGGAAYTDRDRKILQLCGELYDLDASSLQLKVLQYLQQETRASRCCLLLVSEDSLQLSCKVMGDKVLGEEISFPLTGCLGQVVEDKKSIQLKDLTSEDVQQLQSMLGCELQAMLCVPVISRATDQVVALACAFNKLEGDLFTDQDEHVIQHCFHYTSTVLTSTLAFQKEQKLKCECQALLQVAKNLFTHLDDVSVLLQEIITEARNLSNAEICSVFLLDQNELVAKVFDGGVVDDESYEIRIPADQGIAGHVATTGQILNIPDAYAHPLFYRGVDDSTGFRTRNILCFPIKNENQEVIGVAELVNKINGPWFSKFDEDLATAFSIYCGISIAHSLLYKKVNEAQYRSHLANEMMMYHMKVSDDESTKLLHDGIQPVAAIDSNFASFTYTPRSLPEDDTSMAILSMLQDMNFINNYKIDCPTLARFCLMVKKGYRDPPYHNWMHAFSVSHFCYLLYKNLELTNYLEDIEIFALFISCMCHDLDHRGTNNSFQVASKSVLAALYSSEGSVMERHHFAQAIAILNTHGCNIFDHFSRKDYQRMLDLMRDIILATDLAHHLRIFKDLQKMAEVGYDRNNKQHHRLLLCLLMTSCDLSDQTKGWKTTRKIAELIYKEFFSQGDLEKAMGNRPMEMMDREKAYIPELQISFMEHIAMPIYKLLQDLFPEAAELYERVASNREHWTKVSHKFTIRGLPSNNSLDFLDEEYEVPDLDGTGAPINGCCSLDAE
human PDE2A1, sequence (O00408 other isoform, or with tags, fused parts or gaps): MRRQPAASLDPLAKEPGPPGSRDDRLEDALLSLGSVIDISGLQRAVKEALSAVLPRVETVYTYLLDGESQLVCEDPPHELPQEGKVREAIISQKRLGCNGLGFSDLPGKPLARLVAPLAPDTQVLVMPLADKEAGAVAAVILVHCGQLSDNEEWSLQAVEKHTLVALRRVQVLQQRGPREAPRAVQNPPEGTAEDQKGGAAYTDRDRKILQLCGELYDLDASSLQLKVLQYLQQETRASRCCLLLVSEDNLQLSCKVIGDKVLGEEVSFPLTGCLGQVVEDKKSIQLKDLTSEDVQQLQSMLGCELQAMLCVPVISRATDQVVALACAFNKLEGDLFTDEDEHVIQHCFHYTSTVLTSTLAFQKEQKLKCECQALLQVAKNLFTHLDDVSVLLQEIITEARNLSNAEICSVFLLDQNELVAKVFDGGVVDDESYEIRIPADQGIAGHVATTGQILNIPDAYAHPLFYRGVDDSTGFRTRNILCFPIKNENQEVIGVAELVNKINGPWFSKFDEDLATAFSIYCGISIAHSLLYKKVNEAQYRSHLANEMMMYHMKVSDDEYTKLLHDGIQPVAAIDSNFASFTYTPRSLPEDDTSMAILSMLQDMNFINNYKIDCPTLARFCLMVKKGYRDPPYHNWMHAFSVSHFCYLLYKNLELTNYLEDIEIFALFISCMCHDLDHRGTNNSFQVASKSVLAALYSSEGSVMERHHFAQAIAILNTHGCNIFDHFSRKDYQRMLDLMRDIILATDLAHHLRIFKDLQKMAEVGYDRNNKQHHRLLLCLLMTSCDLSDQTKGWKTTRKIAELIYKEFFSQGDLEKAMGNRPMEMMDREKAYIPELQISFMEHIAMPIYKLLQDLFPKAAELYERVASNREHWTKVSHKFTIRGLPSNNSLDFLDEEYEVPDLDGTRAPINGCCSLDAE

By Ki is commonly meant a dissociation constant, usually derived from enzyme kinetics or from competition with a known ligand. Take `C[C@H](c1ccc(C(F)(F)F)c(F)c1)n1nc(CF)c2c(=O)[nH]c(O)nc21` (mixture of isomers) [Example 35, (R)- and (S)-1-(1-(3-Fluoro-4-(trifluoromethyl)phenyl)ethyl)-3-(fluoromethyl)-6-hydroxy-H-pyrazolo[3,4-d]pyrimidin-4(5H)-one]: the Ki at Rhesus PDE2A3 (setting [1]) was 209 nM.

With `CC(c1ccc(C(F)(F)F)c(F)c1)n1nc(CO)c2c(=O)[nH]c(O)nc21` (single isomer, unassigned) [Example 2], the Ki at Rhesus PDE2A3 (setting [1]) is 364 nM.

Turning to `CC(c1ccc(OC(F)(F)F)c(F)c1)n1nc(CO)c2c(=O)[nH]c(O)nc21` (single isomer, unassigned) [Example 10], the Ki is 145 nM at Rhesus PDE2A3 (setting [2]) and 249 nM on Rhesus PDE2A3 (setting [1]).

`CC(c1ccc(OC(F)(F)F)c(F)c1)n1nc(CO)c2c(=O)[nH]c(O)nc21` (single isomer, unassigned) [Example 11]: the Ki worked out at 14 nM at Rhesus PDE2A3 (setting [2]) and 34 nM at Rhesus PDE2A3 (setting [1]).

As for `CC(C)C(c1ccc(C(F)(F)F)cc1)n1nc(CO)c2c(=O)[nH]c(O)nc21` (single isomer, unassigned) [Example 12], the Ki at Rhesus PDE2A3 (setting [1]) worked out at 192 nM.

`O=c1[nH]c(O)nc2c1c(CO)nn2C(c1ccc(C(F)(F)F)cc1)C1CC1` (single isomer, unassigned) [Example 14]: at Rhesus PDE2A3 (setting [1]), the Ki was found to be 410 nM.

Consider `O=c1[nH]c(O)nc2c1c(CO)nn2C(c1ccc(C(F)(F)F)cc1)C1CC1` (single isomer, unassigned) [Example 15, (S) or (R)-1-(Cyclopropyl(4-(trifluoromethyl)phenyl)methyl)-6-hydroxy-3-(hydroxymethyl)-1H-pyrazolo[3,4-d]pyrimidin-4(5H)-one], for which, at Rhesus PDE2A3 (setting [1]), the Ki stood at 17 nM.

On to `CC(c1ccc(C(F)(F)F)cc1)n1nc(CO)c2c(=O)[nH]c(O)nc21` (single isomer, unassigned) [Example 18, (R)- or (S)-6-Hydroxy-3-(hydroxymethyl)-1-{1-[4-(trinuoromethyl)phenyl]ethyl}-1,5-dihydro-4H-pyrazolo[3,4-d]pyrimidin-4-one], for which the Ki on Rhesus PDE2A3 (setting [2]) was above 1000 nM.

Take `CC(c1ccc(S(F)(F)(F)(F)F)cc1)n1nc(CO)c2c(=O)[nH]c(O)nc21` (single isomer, unassigned) [Example 20, (R)- or (S)-6-Hydroxy-3-(hydroxymethyl)-1-{1-[4-(pentafluorosulfanyl)phenyl]ethyl}-1,5-dihydro-4H-pyrazolo[3,4-d]pyrimidin-4-one]: the Ki at Rhesus PDE2A3 (setting [2]) is around 684 nM.

For `O=c1[nH]c(O)nc2c1c(CO)nn2C(CC(F)(F)F)c1ccc(C(F)(F)F)cc1` (single isomer, unassigned) [Example 22], the Ki on Rhesus PDE2A3 (setting [1]) amounted to 253 nM.

Take `O=c1[nH]c(O)nc2c1c(CO)nn2C(CC(F)(F)F)c1ccc(C(F)(F)F)cc1` (single isomer, unassigned) [Example 23]: the inhibitory constant (Ki) at Rhesus PDE2A3 (setting [1]) is around 2700 nM.

`CC(C)(C)C(c1ccc(C(F)(F)F)c(F)c1)n1nc(CO)c2c(=O)[nH]c(O)nc21` (single isomer, unassigned) [Example 24]: the inhibition constant (Ki) at Rhesus PDE2A3 (setting [1]) is around 2270 nM.

`CC(C)(C)C(c1ccc(C(F)(F)F)c(F)c1)n1nc(CO)c2c(=O)[nH]c(O)nc21` (single isomer, unassigned) [Example 25]: the Ki on Rhesus PDE2A3 (setting [1]) turned out to be 238 nM.

Regarding `CC(C)C(c1ccc(C(F)(F)F)c(F)c1)n1nc(CO)c2c(=O)[nH]c(O)nc21` (single isomer, unassigned) [Example 28, (S)- or (R)-1-(1-(3-F1uoro-4-(trifluoromethyl)phenyl)-2-methylpropyl)-6-hydroxy-3-(hydroxymethyl)-1H-pyrazolo[3,4-d]pyrimidin-4(5H)-one], the Ki on Rhesus PDE2A3 (setting [1]) amounted to 117 nM.

`CC(C)(C)C(c1ccc(C(F)(F)F)cc1)n1nc(CO)c2c(=O)[nH]c(O)nc21` (single isomer, unassigned) [Example 29, (R)- or (S)-1-(2,2-Dimethyl-1-(4-(trifluoromethyl)phenyl)propyl)-6-hydroxy-3-(hydroxymethyl)-1H-pyrazolo[3,4-d]pyrimidin-4(5H)-one]: the Ki at Rhesus PDE2A3 (setting [1]) worked out at 220 nM.

`CNc1nc2c(c(CO)nn2C(c2ccc(C(C)(F)F)cc2)C(C)C)c(=O)[nH]1` (single isomer, unassigned) [Example 358]: the Ki at human PDE2A1 stood at 5.3 nM.

For the compound `CNc1nc2c(c(CO)nn2C(c2ccc(C(C)(F)F)cc2)C(C)C)c(=O)[nH]1` (single isomer, unassigned) [Example 359], the Ki at human PDE2A1 worked out at 0.33 nM.

As for `C[C@@H](c1ccc(C(F)(F)F)cc1)n1nc(CO)c2c(=O)[nH]c(NCCCCl)nc21` [Example 155, 6-[(3-Chloropropyl)amino]-3-(hydroxymethyl)-1-{(1S)-1-[4-(trifluoromethyl)-phenyl]ethyl}-1,5-dihydro-4H-pyrazolo[3,4-d]pyrimidin-4-one], on human PDE2A1, the Ki stood at 3.8 nM.

With `C[C@@H](c1ccc(C(F)(F)F)cc1)n1nc(CO)c2c(=O)[nH]c(N)nc21` [Example 157, 6-Amino-3-(hydroxymethyl)-1-{(1S)-1-[4-(trifluoromethyl)phenyl]ethyl}-1,5-dihydro-4H-pyrazolo[3,4-d]pyrimidin-4-one], at human PDE2A1, the Ki is 12 nM.

Regarding `C[C@@H](c1ccc(C(F)(F)F)cc1)n1nc(CO)c2c(=O)[nH]c(N3CCC3)nc21` [Example 158, (S)-6-(Azetidin-1-yl)-3-(hydroxymethyl)-1-(1-(4-(trifluoromethyl)phenyl)ethyl)-1,5-dihydro-4H-pyrazolo[3,4-d]pyrimidin-4-one], at human PDE2A1, the inhibition constant (Ki) turned out to be 0.89 nM.

For `C[C@@H](c1ccc(C(F)(F)F)cc1)n1nc(CO)c2c(=O)[nH]c(N3CC(F)(F)C3)nc21` [Example 159, 6-(3,3-Difluoroazetidin-1-yl)-3-(hydroxymethyl)-1-{(1S)-1-[4-(trifluoromethyl)phenyl]ethyl}-1,5-dihydro-4H-pyrazolo[3,4-d]pyrimidin-4-one], on human PDE2A1, the Ki is 2.3 nM.

With `CC1CN(c2nc3c(c(CO)nn3[C@@H](C)c3ccc(C(F)(F)F)cc3)c(=O)[nH]2)C1` [Example 160, 3-(Hydroxymethyl)-6-(3-methylazetidin-1-yl)-1-{(1S)-1-[4-(trifluoromethyl)phenyl]ethyl}-1,5-dihydro-4H-pyrazolo[3,4-d]pyrimidin-4-one], the Ki at human PDE2A1 worked out at 1.6 nM.

As for `C[C@@H](c1ccc(C(F)(F)F)cc1)n1nc(C(F)F)c2c(=O)[nH]c(N(C)C)nc21` [Example 289, (S)-3-(Difluoromethyl)-6-(dimethylamino)-1-(1-(4-(trifluoromethyl)phenyl)ethyl)-1H-pyrazolo[3,4-d]pyrimidin-4(5H)-one], the Ki at human PDE2A1 stood at 0.25 nM.

Consider `CSc1nc2c(c(CO)nn2[C@@H](C)c2ccc(C(F)(F)F)cc2)c(=O)[nH]1` [Example 301, (S)-3-(Hydroxymethyl)-6-(methylthio)-1-(1-(4-(trifluoromethyl)phenyl)ethyl)-1H-pyrazolo[3,4-d]pyrimidin-4(5H)-one], for which the Ki on human PDE2A1 amounted to 1.8 nM.

On to `C[C@@H](c1ccc(C(F)(F)F)cc1)n1nc(C(F)(F)F)c2c(=O)[nH]c(N(C)C)nc21` [Example 339, (S)-6-(Dimethylamino)-3-(trifluoromethyl)-1-(1-(4-(trifluoromethyl)phenyl)ethyl)-1H-pyrazolo[3,4-d]pyrimidin-4(5H)-one], for which, on human PDE2A1, the inhibition constant (Ki) worked out at 2.1 nM.

`O=c1[nH]c(O)nc2c1c(C(F)(F)F)nn2C1(c2ccc(C(F)(F)F)cc2)CC1` [Example 354, 6-Hydroxy-3-(trifluoromethyl)-1-(1-(4-(trifluoromethyl)phenyl)cyclopropyl)-1H-pyrazolo[3,4-d]pyrimidin-4(5H)-one]: on human PDE2A1, the Ki worked out at 2.4 nM.

In the case of `C=CC(c1ccc(C(F)(F)F)cc1)n1nc(C(F)(F)F)c2c(=O)[nH]c(O)nc21` (stereo not shown) [Example 355, 6-Hydroxy-3-(trifluoromethyl)-1-(1-(4-(trifluoromethyl)phenyl)allyl)-1H-pyrazolo[3,4-d]pyrimidin-4(5H)-one], the Ki on human PDE2A1 came out at 284 nM.

Take `C[C@@H](c1ccc(C(F)(F)F)cc1)n1nc(C(F)F)c2c(=O)[nH]c(N3CCC3)nc21` [compound 290, 6-Azetidin-1-yl-3-(difluoromethyl)-1-{(1S)-1-[4-(trifluoromethyl)phenyl]ethyl}-1,5-dihydro-4H-pyrazolo[3,4-d]pyrimidin-4-one]: the Ki at human PDE2A1 stood at 0.26 nM.

Consider `CCOc1nc2c(c(CO)nn2[C@@H](C)c2ccc(C(F)(F)F)cc2)c(=O)[nH]1` [compound 302, 6-Ethoxy-3-(hydroxymethyl)-1-{(1S)-1-[4-(trifluoromethyl)phenyl]ethyl}-1,5-dihydro-4H-pyrazolo[3,4-d]pyrimidin-4-one], for which the Ki at human PDE2A1 came out at 3.7 nM.
